This is an account of results in patent US5599825A, “Water-soluble methine compound and pharmaceutical composition for treatment of cancer comprising the same” (Fuji Photo Film Co., Ltd., priority 1994, dated 1997).

A short description of series [1]: Solubility test 1: 5 mg in 5 ml ion-exchanged water, macroscopic (1 mg/ml). In kind it is physicochemical. The conditions noted are these: room temperature; for Solubility 1 mg/mL: 5 minutes shaking; for dissolution in the above-described solubility tests: summary in words. The method, then: (§1) The solubility tests were conducted by the following methods of tests 1 and 2:
5 mg of a methine compound is fed into a test tube, to which 5 ml of ion-exchanged water is added, the resultant mixture is shaken at room temperature for 5 minutes, and the solubility thereof is macroscopically confirmed (1 mg/ml solution).

The nature of series [2]: Solubility in 5% glucose solution for injection, macroscopic (10 mg/ml). The following applies: room temperature, 5 minutes shaking. The class given is physicochemical. The method, then:
The solubility of each of the compounds of the present invention synthesized in Example 1 in 5% glucose solution for injection was examined.
5 mg of a methine compound was fed into a test tube, to which 0.5 ml of 5% glucose solution for injection was added, the resultant mixture was shaken at room temperature for 5 minutes, and the solubility thereof was macroscopically confirmed (10 mg/ml solution).

Series [3] can be described thus: Solubility test 2: 5 mg in 0.5 ml ion-exchanged water, macroscopic (10 mg/ml). The class given is physicochemical. The following applies: room temperature, 5 minutes shaking. The method, then:
as §1
5 mg of a methine compound is fed into a test tube, to which 0.5 ml of ion-exchanged water is added, the resultant mixture is shaken at room temperature for 5 minutes, and the solubility thereof is macroscopically confirmed (10 mg/ml solution).

Series [4] deals with LOX, a human melanoma cell line. The series is described as follows: Nude mice bearing human melanoma LOX (survival). The class given is in vivo, human (in male athymic Swiss nu/nu mouse). The following applies: i.p. The procedure: Nude Mice Bearing Human Melanoma as a Model System
LOX, a human melanoma cell line, grown subcutaneously in nude mice was excised, trypsinized to yield a single cell suspension using a metal grid with a […]. Red blood cells were lysed by incubation with 0.17 molar ammonium chloride at 4° C. for 20 minutes. Five million viable trypan blue negative cells made up in 0.1 ml of Dulbecco modified Eagles' medium (DME) were injected into the peritoneal cavity of a male athymic Swiss nu/nu mouse. The control group and each treatment group consisted of 5 to 10 mice. Treatment was commenced the following day by intraperitoneal injection.
Ten control mice received 0.25 ml of 2% dextrose on those days the treated groups were injected with the compounds of this invention. The compounds of the General Formulas (I) to (II) used in this invention which were tested are listed in Table 6 below and the results obtained are shown in Table 6 of the accompanying drawings. T/C is the ratio, expressed as a percentage of the mean survival age of the treated group to the mean survival age of the untreated control group.

Series [5] relates to human colonic epithelial carcinoma LS174T. In words: Activity against human colonic epithelial carcinoma LS174T in nude mouse (tumor inhibition). The class given is in vivo, human (transplanted in BALB/C nu/nu mice). The following applies: i.v. The method, then: Activity of the present pharmaceutical compositions against human colonic epithelial carcinoma LS174T was determined by use of nude mouse as follows:
As the human colonic epithelial carcinoma cell lines LS174T, there was used the established line by trypsinizing piece of LS174T obtained from the operating theatre of the original adenocarcinoma of colon in such that the piece becomes suitable for cultivation. When this cultured cells LS174T are hypodermically injected to a nude mouse, the cells can be easily grown in the body of the nude mouse as a moderately to sufficiently differentiated human colonic epithelial carcinoma. The cells LS174T produce CEA in high level and can proliferate in hamster cheek pouches or immunodeprived mice, so that it has been proven that the cells LS174T have neoplastic properties.
BALB/C nu/nu mice (male, five weeks age) available from Charles River Japan Inc. were placed in an atmosphere having no pathogen. Tumors formed by the hypodermic injection of human colonic epithelial carcinoma cell lines LS174T into the mice were cut off under the aseptic condition, and the surrounding skin and connective tissue of the tumor tissues as well as the necrotic tissue located in the center of the tumor tissues were removed. The tumor tissues were Cut in the form of 3-5 mm square, and the resulting one tissue was charged into a needle for transplantation to hypodermically transplant it into the mouse. The resulting mice were randomly divided into control group (six mice) and treating group (six mice). The intravenous administration of the pharmaceutical composition into the treating group started next day. The amount and schedule of the administration were determined based on the experience, mainly the knowledge from the pretoxic-test data of LD 50 and LD 10.5% glucose solution or physiologic saline for injection was injected to the control group in the same amount as that to be intravenously injected to the treating group.
The pharmaceutical composition was dissolved in 5% glucose solution or physiologic saline for injection in such that the amount of the pharmaceutical composition contained in the glucose solution or physiologic saline is 5 ml per one kg of weight of the mouse to be injected so as to prepare an injection liquid. When the proliferation of tumor in the control group reached exponential growth phase and the size of the tumor became detectable by touch with hand, i.e., generally three weeks after the transplantation, the experiment was stopped. Then the tumor of each mouse was cut off and the weight of the resulting tumor was measured by use of chemical balance. Regarding each group, tumor inhibition percentage between the treating group and control group was calculated.

Each structure is given as a SMILES string.

As to `CCn1c(=Cc2sc3ccccc3[n+]2CCOCCOCCOC)sc(=C2Sc3ccc4ccccc4c3N2C)c1=O` [Compound 1-3], the “Solubility 1 mg/mL” value in series [1] was “soluble”. The “Solubility 10 mg/mL” value in series [2] and in series [3] was “soluble” in each case. Further, the “T/C (mean survival age of treated group to untreated control group)” value in series [4] (7.5 mg/kg days 1, 2, 5, 7, 9, 13, 15, 20) was determined as 153%. Also, the “Tumor Inhibition Ratio” value in series [5] (5 mg/kg day 1, 10 mg/kg days 3, 7, 13 mg/kg days 9, 13, 15, 17) came to 51.1%.
Regarding `CCn1c(=Cc2sc3ccccc3[n+]2CCOCCOCCOCCOC)sc(=C2Sc3ccc4ccccc4c3N2C)c1=O` [Compound 1-4], the “Solubility 1 mg/mL” value in series [1] is on record as “soluble”. Moreover, the “Solubility 10 mg/mL” value in series [2] and in series [3] was “soluble” each time. In addition, the “Tumor Inhibition Ratio” value in series [5] (5 mg/kg days 1, 3, 7.5 mg/kg day 6, 10 mg/kg days 8, 10, 12.5 mg/kg days 13, 15, 17) was found to be 71.5%.
Turning to `CCn1c(=Cc2sc3c4ccccc4ccc3[n+]2CCOCCOCCOC)sc(=C2Sc3ccc4ccccc4c3N2C)c1=O` [Compound 1-5], the “Solubility 1 mg/mL” value in series [1] is “soluble”. In addition, the “Solubility 10 mg/mL” value in series [3] is listed as “suspension”.
The matching figures for `CCn1c(=Cc2sc3ccccc3[n+]2CC)sc(=C2Sc3c(ccc4ccccc34)N2CCOCCOCCOC)c1=O` [Compound 1-6, 3-ethyl-2-{[3-ethyl-5-(3-methoxyethoxyethoxyethylnaphtho[2,1-d]thiazolin-2-ylidene)]-4-oxothiazolidin-2-ylidenemethyl}benzothiazolium=chloride]: “soluble” and “soluble”.
As for `CC[n+]1c(C=c2sc(=C3Sc4c(ccc5ccccc45)N3C)c(=O)n2CCOCCOCCOC)sc2ccccc21` [Compound 1-7, 3-ethyl-2-{[3-methoxyethoxyethoxyethyl-5-(3-methylnaphtho[2,1-d]thiazolin-2-ylidene)]-4-oxothiazolidin-2-ylidenemethyl}benzothiazolium=chloride], in series [1], the “Solubility 1 mg/mL” value is “soluble”. Also, the “Solubility 10 mg/mL” value in series [2] and in series [3] was “soluble” throughout. In addition, the “T/C (mean survival age of treated group to untreated control group)” value in series [4] (5 mg/kg days 1, 9, 15, 10 mg/kg days 2, 5, 7, 13) is 129%. For the same compound, the “Tumor Inhibition Ratio” value in series [5] (5 mg/kg days 1, 17, 7.5 mg/kg day 3, 10 mg/kg days 6, 8, 10, 13) came to 83.0%.
`CCn1c(=Cc2sc3ccccc3[n+]2CCOCCOCCOC)sc(=C2Sc3c(ccc4ccccc34)N2C)c1=O` [Compound 1-8]: in series [1], the “Solubility 1 mg/mL” value is reported as “soluble”. Besides, the “Solubility 10 mg/mL” value is given as “soluble” in series [2] and “suspension” in series [3].
For `CCn1c(=Cc2sc3ccccc3[n+]2CCC2OCCCO2)sc(=C2Sc3ccc4ccccc4c3N2C)c1=O` [Compound 1-9, 3-(1,3-dioxane-2-ethyl)-2-{[3-ethyl-5-(3-methylnaphtho[1,2-d]thiazolin-2-ylidene)]-4-oxothiazolidin-2-ylidenemethyl}benzothiazolium=chloride], the “Solubility 1 mg/mL” value in series [1] is “soluble”. In addition, the “Solubility 10 mg/mL” value in series [3] was “suspension”. For the same compound, the “T/C (mean survival age of treated group to untreated control group)” value in series [4] (5 mg/kg days 1, 13, 15, 10 mg/kg days 2, 5, 7, 15 mg/kg day 9) is reported as 153%. In addition, in series [5] (3 mg/kg days 1, 4, 7, 1 mg/kg days 9, 11, 13, 18), the “Tumor Inhibition Ratio” value was 65.6%.
Consider `CCn1c(=Cc2sc3ccccc3[n+]2CCOCCOCCOC)sc(=C2Oc3ccc4ccccc4c3N2C)c1=O` [Compound 1-10], for which the “Solubility 1 mg/mL” value in series [1] is “soluble”. Besides, the “Solubility 10 mg/mL” value in series [2] and in series [3] was “soluble” in each case.
Regarding `CCn1c(=Cc2sc3c4ccccc4ccc3[n+]2CCOCCOCCOC)sc(=C2Sc3ccccc3N2C)c1=O` [Compound 1-11, 3-methoxyethoxyethoxyethyl-2-{[3-ethyl-5-(3-methylbenzothiazolin-2-ylidene)]-4-oxothiazolidin-2-ylidenemethyl}naphtho[2,1-d]thiazolium=chloride], the “Solubility 1 mg/mL” value in series [1] is “soluble”. In addition, the “Solubility 10 mg/mL” value in series [2] and in series [3] was “soluble” throughout. In series [4] (5 mg/kg days 1, 15, 10 mg/kg days 2, 5, 7, 13, 15 mg/kg day 9), the “T/C (mean survival age of treated group to untreated control group)” value was determined as 129%. Also, the “Tumor Inhibition Ratio” value in series [5] (8 mg/kg day 1, 10 mg/kg days 3, 6, 8, 10, 15, 17) was determined as 67.9%.
In the case of `CCn1c(=Cc2sc3ccccc3[n+]2CCOCCOCCOC)sc(=C2Sc3ccccc3N2C)c1=O` [Compound 1-12], the “Solubility 1 mg/mL” value in series [1] is given as “soluble”. Besides, the “Solubility 10 mg/mL” value in series [2] and in series [3] was “soluble” each time. For the same compound, the “T/C (mean survival age of treated group to untreated control group)” value in series [4] (5 mg/kg day 1, 10 mg/kg days 2, 5, 7, 9, 13, 15) is 124%.
For `CCn1c(=Cc2sc3c4ccccc4ccc3[n+]2CCOCCOCCOC)sc(=C2SCCN2C)c1=O` [Compound 1-14], the “Solubility 1 mg/mL” value in series [1] was “soluble”. Besides, the “Solubility 10 mg/mL” value in series [2] and in series [3] was “soluble” throughout.
Turning to `CCN1C(=O)C(=C2Sc3ccc4ccccc4c3N2C)SC1=Nc1scc[n+]1CCOCCOCCOC` [Compound 1-15], the “Solubility 1 mg/mL” value in series [1] is “soluble”. Moreover, the “Solubility 10 mg/mL” value in series [2] and in series [3] was “soluble” in each case. Moreover, the “Tumor Inhibition Ratio” value in series [5] (10 mg/kg days 1, 3, 6, 8, 10, 13, 15, 20) worked out at 60.0%.
On to `CCn1c(=Cc2sc3c4ccccc4ccc3[n+]2CCOCCOCCOC)sc(=CC=C2Sc3ccc4ccccc4c3N2C)c1=O` [Compound 1-16], for which the “Solubility 1 mg/mL” value in series [1] is given as “soluble”. The “Solubility 10 mg/mL” value in series [2] is given as “soluble”; in series [3], “suspension”.
Turning to `CCn1c(=Cc2sc3ccccc3[n+]2CC)sc(=C2Sc3ccc4ccccc4c3N2C)c1=O` [Compound S-1, reference compound], in series [1], the “Solubility 1 mg/mL” value is “suspension” and the “dissolution in the above-described solubility tests” value (“dissolution” below) is “not dissolved”. Besides, in series [2], the “Solubility 10 mg/mL” value is on record as “suspension”. Further, the “Solubility 10 mg/mL” value in series [3] is recorded as “suspension”.
Regarding `CCn1c(=Cc2sc3ccccc3[n+]2CCOC)sc(=C2Sc3ccc4ccccc4c3N2C)c1=O` [Compound S-2, reference compound], in series [1], the “Solubility 1 mg/mL” value is “suspension”. In addition, the “dissolution” value in series [1] is “not dissolved”. For the same compound, the “Solubility 10 mg/mL” value in series [2] and in series [3] was “suspension” each time.
Consider `CCn1c(=Cc2sc3ccccc3[n+]2CCOCCO)sc(=C2Sc3ccc4ccccc4c3N2C)c1=O` [Compound S-3, reference compound], for which, in series [1], the “Solubility 1 mg/mL” value is given as “suspension” and the “dissolution” value is recorded as “not dissolved”. Moreover, in series [2], the “Solubility 10 mg/mL” value is given as “suspension”. Moreover, the “Solubility 10 mg/mL” value in series [3] was “suspension”.
